From patent US11939294B1 (priority 2023, dated 2024)

Tests used:
[1] = system: Mycobacterium tuberculosis H37Rv (susceptible; ATCC: 25177); test: Resazurin Microplate Assay (REMA), anti-tubercular activity, susceptible strain; type: cell-based; details: 192 h, read-out: MIC (μg/mL) Susceptible (H37Rv), H37Rv, ATCC: 25177, 8 days incubation at 37° C.

Compound `COc1ccc(C(=O)C[n+]2cc(C)cc(C)c2)cc1.[Br-]` has a melting point of 108 °C.
Work on `Cc1cc(C)c[n+](CC(=O)c2ccc(Cl)cc2)c1.[Br-]` yielded a melting point of 125 °C.
For `Cc1cc(C)c[n+](CC(=O)c2ccc(Br)cc2)c1.[Br-]`, the melting point was 210 °C.
In the case of `Cc1cc(C)c[n+](CC(=O)c2ccc(F)cc2)c1.[Br-]` [Compound 3d, 1-(2-(4-Fluorophenyl)-2-oxoethyl)-3,5-dimethylpyridin-1-ium bromide], the MIC [1] is reported as ~8 µg/mL and the melting point is reported as 123 °C.
